Values joined by “and” are separate entries in the source; they are usually repeats but may differ in a detail not shown here. Equal entries are not always repeated.
System: Rats
Assay: Conditioned avoidance behavior in rats
Format: in vivo, rat
Source text: Conditioned Avoidance Behavior in Rats:
In a conditioned avoidance test, animals learn to respond during a conditioned stimulus in order to avoid mild shock presentation. A response during the conditioned stimulus is termed an avoidance response, a response during shock is termed an escape response; a response failure is when the animal fails to respond during either the conditioned stimulus or the shock presentation and is indicative of motor impairment. […] Antipsychotic drugs decrease the percentage of avoidance responses without interfering with the ability of the animal to respond since the animals do emit escape responses. The percentage of response failures is considered a measure of motor impairment.
Rats were required to press a response lever in an experimental chamber in order to avoid or escape foot-shock. Each experimental session consisted of 50 trials. During each trial, the chamber was illuminated and a tone presented for a maximum of 10 sec. A response during the tone immediately terminated the tone and the houselight, ending the trial. In the absence of a response during the tone alone, tone+foot-shock (2.0 mA) was presented for a maximum of 10 sec. A response during shock presentation immediately terminated the shock, the tone and the houselights ending the trial.
If the effects are simply additive the results will be additive. If the effects of are synergistic, then the dose of second component required to produce full efficacy will be decreased.

[1] = first component dose 0.16 in combination with Xanomeline dose 10
[2] = first component dose 0.32 in combination with Xanomeline dose 10
[3] = first component dose 0.625 in combination with Xanomeline dose 10
[4] = first component dose 1.25 in combination with Xanomeline dose 10
[5] = first component dose 2.5 in combination with Xanomeline dose 10
[6] = first component dose 0.01 in combination with Xanomeline dose 10
[7] = first component dose 0.03 in combination with Xanomeline dose 10
[8] = first component dose 0.1 in combination with Xanomeline dose 10
[9] = first component dose 0.3 in combination with Xanomeline dose 10
[10] = first component dose 0.001 in combination with Xanomeline dose 10
[11] = first component dose 0.003 in combination with Xanomeline dose 10
[12] = given alone, dose 0.03 (dose unit not given)
[13] = Xanomeline dose 10 with first component dose 0 (combination series)

% Response Failures ± SEM (given alone, dose 10)	% Response Failures ± SEM [6] [%]	% Response Failures ± SEM [7] [%]	% Response Failures ± SEM (given alone, dose 0.1) [%]	% Response Failures ± SEM (given alone, dose 0.3) [%]	% Response Failures ± SEM (given alone, dose 1) [%]	Structure (SMILES)	% Avoidance Responses ± SEM (given alone, dose 10)	% Avoidance Responses ± SEM [6] [%]	% Avoidance Responses ± SEM [7] [%]	% Avoidance Responses ± SEM [8] [%]	% Avoidance Responses ± SEM [9] [%]	% Avoidance Responses ± SEM (given alone, dose 0.1) [%]	% Avoidance Responses ± SEM (given alone, dose 0.3) [%]	% Avoidance Responses ± SEM (given alone, dose 1)	% Avoidance Responses ± SEM [10] [%]	% Avoidance Responses ± SEM [11] [%]	% Avoidance Responses ± SEM [12] [%]	% Avoidance Responses ± SEM (given alone, dose 3)	other results
16 ± 8%						CN(C)CCCN1c2ccccc2Sc2ccc(Cl)cc21 [Chlorpromazine]	10 ± 4%												% Avoidance Responses ± SEM [1]: 56 ± 11%; % Response Failures ± SEM [1]: 1 ± 1%; % Avoidance Responses ± SEM [2]: 46 ± 22%; % Response Failures ± SEM [2]: 19 ± 19%; % Avoidance Responses ± SEM [3]: 30 ± 17%; % Response Failures ± SEM [3]: 0 ± 0%; % Avoidance Responses ± SEM [4]: 20 ± 10%; % Response Failures ± SEM [4]: 8 ± 7%; % Avoidance Responses ± SEM [5]: 22 ± 7%; % Response Failures ± SEM [5]: 1 ± 0%; % Avoidance Responses ± SEM (given alone, dose 1.25): 99 ± 1%; % Response Failures ± SEM (given alone, dose 1.25): 0 ± 0%; % Avoidance Responses ± SEM (given alone, dose 2.5): 96 ± 4%; % Response Failures ± SEM (given alone, dose 2.5): 0 ± 0%; % Avoidance Responses ± SEM (given alone, dose 5): 27 ± 12%; % Response Failures ± SEM (given alone, dose 5): 7 ± 5%
	1 ± 0	3 ± 2	0 ± 0	2 ± 1	28 ± 9	OCCN1CCN(CCCN2c3ccccc3Sc3ccc(C(F)(F)F)cc32)CC1 [Fluphenazine]		77 ± 12	52 ± 12	66 ± 11	33 ± 16	100 ± 0	67 ± 9	33 ± 6%					% Response Failures ± SEM [8]: 0 ± 0%; % Response Failures ± SEM [9]: 6 ± 6%
	1 ± 0	8 ± 6	2 ± 1	25 ± 12		O=C(CCCN1CCC(O)(c2ccc(Cl)cc2)CC1)c1ccc(F)cc1 [Haloperidol]		57 ± 6	27 ± 8			59.0 ± 13.0	10.0 ± 2.0		70 ± 12	45 ± 13	98.0 ± 1.0		% Response Failures ± SEM [10]: 5 ± 3%; % Response Failures ± SEM [11]: 14 ± 11%; % Response Failures ± SEM (given alone, dose 0.03 (dose unit not given), measure of motor impairment): 1 ± 0%
						Cc1cc2c(s1)Nc1ccccc1N=C2N1CCN(C)CC1 [Olanzapine, 2-methyl-4-(4-methyl-1-piperazinyl)-10H-thieno[2,3-b][1,5]benzodiazepine]	2 ± 1%	66 ± 11	47 ± 12	56 ± 6	53 ± 14			98 ± 1%				59 ± 16%	% Avoidance Responses ± SEM (first component dose 1.0 in combination with Xanomeline dose 10): 9 ± 6%
						Cc1nc2n(c(=O)c1CCN1CCC(c3noc4cc(F)ccc34)CC1)CCCC2 [Risperidone, 3-[2-[4-(6-fluoro-1,2-benzisoxazol-3-yl)piperidino]ethyl]-2-methyl-6,7,8,9-tetrahydro-4H-pyrido[1,2-a]pyrimidin-4-one]		23 ± 14	8 ± 2			91 ± 5	37 ± 11	2 ± 1%	48 ± 8	48 ± 16	100 ± 0		
2 ± 1% and 1 ± 0%					0 ± 0	CCCCCCOc1nsnc1C1=CCCN(C)C1 [Xanomeline, 3-(4-hexyloxy-1,2,5-thiadiazol-3-yl)-1,2,5,6-tetrahydro-1-methylpyridine]	44 ± 18% and 78 ± 12% and 63 ± 18%							98 ± 2% and 99 ± 0%				93 ± 3% and 99 ± 1%	% Avoidance Responses ± SEM [13]: 87 ± 9% and 56 ± 13% and 72 ± 13%; % Response Failures ± SEM [13]: 0 ± 0%; % Response Failures ± SEM (given alone, dose 3): 0 ± 0%; % Avoidance Responses ± SEM (given alone, dose 17.5): 11 ± 4%; % Response Failures ± SEM (given alone, dose 17.5): 2 ± 1%
